Data on eight compounds can be found in patent US8372380B2, “In vivo imaging of sulfotransferases” (The Regents of the University of California, priority 2007, dated 2013).

As usually defined, the IC50 is the midpoint of a concentration-inhibition curve. What is called Ki is the equilibrium dissociation constant of an inhibitor or competing ligand from its target. Low readings indicate a stronger hold on the target, high ones a looser hold on the target.

Structures are written as SMILES.

Series [1] deals with T1, sulfotransferase SULT1A1 (Rattus norvegicus, UniProt P17988).
T1 construct: from tissue; host or cells: living Sprague-Dawley rat (brain, chest, abdomen)
T1 sequence (P17988 whole entry): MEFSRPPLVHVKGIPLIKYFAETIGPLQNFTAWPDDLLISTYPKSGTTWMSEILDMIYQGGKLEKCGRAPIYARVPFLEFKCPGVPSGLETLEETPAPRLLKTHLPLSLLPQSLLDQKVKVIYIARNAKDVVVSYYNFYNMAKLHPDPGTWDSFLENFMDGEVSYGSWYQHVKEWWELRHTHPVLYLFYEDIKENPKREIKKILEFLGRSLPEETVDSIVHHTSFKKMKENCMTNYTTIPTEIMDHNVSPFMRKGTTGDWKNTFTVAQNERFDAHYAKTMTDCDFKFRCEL
Description: In vivo microPET imaging of sulfotransferase activity and inhibition in rat. The arrangement: species or system Sprague-Dawley rat. As for the experimental part: (§1) A bolus of a radiolabeled tracer is administered intravenously to a non-human primate, rodent, or other non-human mammal, and the distribution of tracer transport activity is followed by radiographic means, e.g., PET, microPET and/or SPECT. For PET, an intravenous dose of the tracer contains ˜0.1-3 mCi/kg (body weight) dissolved in <1 ml of 10% ethanol in saline. The identity of each organ and tissue taking up the tracer can be confirmed by CT scans. Scans can be conducted both with and without administering one or more pharmacological agents, e.g., 2,6-dichloro-4-nitrophenol, quercitin, curcumin, etc.
FIG. 7 depicts in vivo microPET imaging of sulfotransferase activity and inhibition in a male, Sprague-Dawley rat suffering from renal hypertension, chronic progressive nephropathy, and lung inflammation, using 4-[^18F]-fluoro-3-nitrophenol as a substrate and 2,6-dichloro-4-nitrophenol as an inhibitor. 4-[^18F]-fluoro-3-nitrophenol was administered as a bolus injection (0.5 to 2.0 mCi) and the rat brain was scanned dynamically for 60 min. Subsequently, the chest was scanned for 5 min., followed by a 5 min. scan of the abdomen.

Series [2] addresses brain SULT1A enzymes. The note with it: Vietri et al., 2002b, read-out: IC50 for blocking sulfonation of R(−)-apomorphine; cited from earlier work.
The target of series [3] is T2, sulfotransferase SULT1A1 (Homo sapiens, UniProt P50225).
T2 construct: purchased Sigma; host or cells: sf-9 insect cells (baculovirus)
T2 sequence (P50225 whole entry): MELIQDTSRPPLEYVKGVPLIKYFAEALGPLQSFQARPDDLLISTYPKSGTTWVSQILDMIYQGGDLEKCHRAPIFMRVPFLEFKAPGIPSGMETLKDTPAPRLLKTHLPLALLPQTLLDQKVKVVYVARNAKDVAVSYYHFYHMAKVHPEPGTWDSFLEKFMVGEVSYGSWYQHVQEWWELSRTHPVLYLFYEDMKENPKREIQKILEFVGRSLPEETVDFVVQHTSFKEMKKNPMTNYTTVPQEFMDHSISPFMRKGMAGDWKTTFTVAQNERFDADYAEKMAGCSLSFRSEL
Description: Inhibition of SULT1A1 sulfonation of para-nitrophenol (PNP). The class given is biochemical. The note with it: inhibition of SULT1A1 sulfonation of 4-nitrophenol; 37° C., 15 min, [35S]-PAPS. An excerpt: (§2) β-Naphthol (BN, a reference control), para-nitrophenol (PNP), estradiol (E2), dehydroepiandrosterone (DHEA), dopamine, dithiothreitol (DTT), and MgCl2 were purchased from Sigma (St. Louis, Mo.). Cytosolic extract of sf-9 insect cells infected with a baculovirus containing SULT cDNAs (SULT1A1, SULT1A3, SULT1E1, SULT2A1) were also purchased from Sigma. [^35S]-3′-Phosphoadenosine 5′-Phosphosulfate (PAPS)(1-3 Ci/mmol) was purchased from Perkin Elmer (Waltham, Mass.). Aluminum-backed silica TLC plates were purchased from Whatman.
Substrate sulfonation assays were performed using cytosolic sulfotransferases SULT1A1, SULT1A3, SULT1E1, and SULT2A1. Enzyme kinetic parameters were determined by using substrate concentration curves. The sulfonation reaction was carried out using [^35S]-PAPS as the sulfate donor, and the reaction mixture was analyzed using a thin-layer chromatography (TLC) method described in literature (Falany et al., 2006). Reaction mixtures consisted of 10 μL of substrates, originally dissolved in dimethyl sulfoxide and diluted to 1% with Tris-HCl buffer; 50 mM Tris-HCl buffer, pH 7.4; 0.1% bovine serum albumin; 7.5 mM DTT; and 1 μM [^35S]-PAPS in the final volume of 50 μL. The final concentration of dimethyl sulfoxide was kept at 0.2%. Reactions with SULT1E1 and SULT2A1 were supplemented with 7 mM MgCl2; reactions with SULT1A3 included 1 mM pargyline. Control reactions were performed under identical conditions without addition of substrates. Sulfonation reactions were carried out at 37° C. for 15 min. Enzymatic activity was terminated by precipitation with 50 μL of ice cold methanol and cooling the mixture at −20° C. Subsequently, 20 μL aliquots of the supernatant were spotted on silica gel TLC plates and were developed in t-butanol:acetic acid:water (8:1:1 by volume). Sulfonated products (Rf=0.66±0.05) were well separated from unreacted [^35S]PAPS, which was retained at the origin. TLC plates were exposed on digital autoradiography plates for 2 hrs and read in with a Fuji BAS-5000 digital autoradiography plate reader. The results were quantitated with the software provided with the scanner. Spots were localized and the silica gel was scraped into liquid scintillation vials. Vials were counted using MP-Ecolite+ LS fluid and a Packard Tricarb 2300TR LSC for 5 min per vial. Reactions were monitored for linearity with time and enzyme concentration to ensure the enzyme was the limiting factor.
In vitro inhibition reactions were performed using the standard SULT1A1 substrate, para-nitrophenol (PNP), against various 4′-substituted 2-phenyl-6-hydroxybenzothiazoles shown in Table 3. PNP was dissolved in 50 mM Tris-HCl buffer (pH 7.4), and inhibitors were dissolved in dimethyl sulfoxide and diluted to 1% dimethyl sulfoxide concentration with the Tris-HCl buffer. […]

For series [4] the following is noted: rat brain; Mathis et al., 2004; cited from earlier work.
Series [5] is described as follows: Plasma metabolite analysis of tracer in rats. The following applies: rat plasma, after 10-15 min. It is filed as in vivo, Sprague-Dawley rats. As for the experimental part:
(§3) FIG. 5 depicts in vivo microPET imaging of sulfotransferase SULT1E1 expression in healthy and inflamed lungs in 8-9 month old male Sprague-Dawley rats, using the substrate 2-(4′-([^11C]-methylamino)phenyl)-6-hydroxybenzothiazole. On the left are shown the chest and upper abdomen of a healthy control rat; on the right is a rat suffering from renal hypertension, chronic progressive nephropathy, and lung inflammation. Both animals were injected with 2.0-2.5 mCi of activity. The images shown were acquired over the period of 15-25 min after injection. […] Warmer colors represent higher levels of tracer uptake.
Metabolite analysis was performed using reverse phase C-18 TLC plates and a mixture of methanol, acetic acid and water (80:5:15, respectively). Plasma was de-proteinated with addition of an equal volume of methanol. The supernatant was spotted on the plates and the plates developed in the mobile phase. The analysis of the plates was performed as described above in the description of the sulfonation assays (Ex. 1-25). Metabolites were identified as follows: […] samples of plasma were mixed with 500-1000 U of either […] (to remove the sulfonated metabolite) or glucoronidase (to remove glucoronidated metabolite). […] The supernatants were analyzed as described above and the results compared with the results for un-treated plasma.

Series [6] addresses T3, sulfotransferase SULT1E1 (Homo sapiens, UniProt P49888).
T3 construct: from tissue; host or cells: living human subjects (lungs, liver, kidneys)
T3 sequence (P49888 1-294): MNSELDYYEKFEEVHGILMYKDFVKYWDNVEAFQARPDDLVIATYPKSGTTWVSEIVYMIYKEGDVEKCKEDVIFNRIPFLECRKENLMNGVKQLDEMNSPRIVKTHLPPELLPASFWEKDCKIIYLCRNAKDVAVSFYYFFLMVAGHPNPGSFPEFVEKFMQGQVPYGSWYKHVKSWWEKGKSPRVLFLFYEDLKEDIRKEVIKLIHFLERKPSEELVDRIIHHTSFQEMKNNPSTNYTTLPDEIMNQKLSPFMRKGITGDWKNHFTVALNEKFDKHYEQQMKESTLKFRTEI
Description: In vivo PET imaging of SULT1E1 expression in humans. The following applies: PET 20-45 minutes after injection. As for the experimental part: A bolus of a radiolabeled tracer is administered to a human subject by intravenous injection, and its uptake into a tumor (in the case of cancer), one or more organs of interest, and/or other tissues of the body is followed radiographically. For a 50-70 kg person, 10 mCi of an appropriate tracer from Table 1 or 2 (e.g.) is dissolved in <10 ml 10% ethanol in saline and is injected intravenously, and the distribution of the tracer is followed dynamically with PET for up to 2 hours (multiple whole-body scans at different time intervals or dynamic PET scan of a specific organ). SULT activity in organs and tissues is determined using tracer kinetic modeling from the PET determined tracer uptake data. The anatomical location of tracer uptake in both normal subjects and cancer patients can be determined using CT scans.
FIG. 6 depicts in vivo PET imaging of sulfotransferase SULT1E1 expression in two adult male humans. […] Increased SULT1E1 expression associated with lung inflammation caused by smoking is clearly visible in the lungs of the smoker. Both subjects were scanned with PET 20-45 minutes after being injected with the tracer 2-(4′-([^11C]-methylamino)phenyl)-6-hydroxybenzothiazole. The smoker received a dose of 10.5 mCi, and the non-smoker received 10.0 mCi. The images were normalized by dividing the signal values with dose injected per kg of body weight.

The target in series [7] is T4, SULT1A1 (Homo sapiens, UniProt P50225).
T4 construct: purchased Sigma; host or cells: sf-9 insect cells (baculovirus)
T4 sequence (P50225 whole entry): as the sequence (P50225 whole entry) above
The experiment in a line: Substrate sulfonation assay, SULT1A1. The note with it: in vitro sulfonation. It is filed as biochemical.
Excerpt: as §2
(§4) Substrate sulfonation assays were performed using cytosolic sulfotransferases SULT1A1, SULT1A3, SULT1E1, and SULT2A1. Enzyme kinetic parameters were determined by using substrate concentration curves. The sulfonation reaction was carried out using [^35S]-PAPS as the sulfate donor, and the reaction mixture was analyzed using a thin-layer chromatography (TLC) method described in literature (Falany et al., 2006). […] TLC plates were exposed on digital autoradiography plates for 2 hrs and read in with a Fuji BAS-5000 digital autoradiography plate reader. The results were quantitated with the software provided with the scanner. […] Vials were counted using MP-Ecolite+ LS fluid and a Packard Tricarb 2300TR LSC for 5 min per vial. Reactions were monitored for linearity with time and enzyme concentration to ensure the enzyme was the limiting factor. […]

The test system of series [8] is sulfotransferase SULT1E1. Description: In vivo microPET imaging of SULT1E1 expression in rats. The arrangement: species or system Sprague-Dawley rats. The following applies: images 15-25 min after injection. On the procedure: as §1, §3
Series [9] concerns the target T5, SULT1E1 (Homo sapiens, UniProt P49888).
T5 construct: purchased Sigma; host or cells: sf-9 insect cells (baculovirus)
T5 sequence (P49888 1-294): T3 sequence (P49888 1-294)
Description: Substrate sulfonation assay, SULT1E1. It is filed as biochemical. The note with it: in vitro sulfonation.
Excerpt: as §2, §4

With `O=[N+]([O-])c1cc(Cl)c(O)c(Cl)c1` [2,6-dichloro-4-nitrophenol], in series [1] (5 mg/Kg at the time of the 4-[18F]-fluoro-3-nitrophenol bolus injection), the “effect on SULT1A1 activity in vivo (microPET)” value is listed as “inhibitory effect on SULT1A1 activity”.
Consider `O=[N+]([O-])c1cc(O)ccc1[18F]` [4-[^18F]-fluoro-3-nitrophenol, 4-[^18F]Fluoro-3-nitrophenol], for which the “substrate for SULT1A1 in vivo (microPET)” value in [1] (rat, bolus injection 0.5 to 2.0 mCi) is “is a substrate for the sulfotransferase SULT1A1”.
Take `O=c1c(O)c(-c2ccc(O)c(O)c2)oc2cc(O)cc(O)c12` [quercitin]: the IC50 in [2] was 16 ± 2.3 nM.
Consider `CNc1ccc(-c2nc3ccc(O)cc3s2)cc1` [Compound 14], for which the Ki in [3] was found to be 5.1 ± 0.3 nM.
Same read-out and setting: next, `Oc1ccc2nc(-c3ccc(F)cc3)sc2c1` [Compound 19]: 140 ± 10 nM.
Compound `COc1ccc(-c2nc3ccc(O)cc3s2)cc1` [Compound 17] displayed a Ki in series [3] of 24 ± 2 nM. This Ki is about 5.8-fold lower than that of the compound before.
Consider `[11CH3]Nc1ccc(-c2nc3ccc(O)cc3s2)cc1` [2-(4′-([^11C]-methylamino)phenyl)-6-hydroxybenzothiazole], for which the “sulfonation in brain in vivo” value in series [4] is reported as “sulfonated in the rat brain in vivo”. For the same compound, the “fraction of tracer in sulfated form in plasma” value in series [5] is around 90%. The “tracer activity in liver and kidneys” value in [6] is “high level of activity”. Further, the figures for the “tracer uptake in lungs” value in series [6] (versus background (muscles)), in [8] (healthy control rat) and in series [8] (rat with lung inflammation) were “increased level of uptake compared with the background”, “indistinguishable from the background” and “increased uptake”, respectively. Besides, the “substrate for SULT1A1” value in [7] is recorded as “not a substrate for SULT1A1”. Moreover, the “tracer activity in liver” value in [8] (rats) was “high level of activity”. The “substrate for SULT1E1” value in [9] is recorded as “good marker of sulfotransferases, most specifically SULT1E1”.
Take `CC(=O)Nc1ccc(-c2nc3ccc(O)cc3s2)cc1` [Compound 18]: in series [3], the Ki amounted to 100 ± 20 nM.
